Laboratory results published in the NIST ThermoML archive (doi:10.1016/j.jct.2008.12.014).
± gives the expanded uncertainty stated by the source.

Details: Liquid, Vibrating tube method

CC(C)O [propan-2-ol]
Details	mass density [kg/m3]
280.21 K, 117.9 kPa	797.61 ± 0.15
280.21 K, 439.6 kPa	797.89 ± 0.15
280.21 K, 938.7 kPa	798.29 ± 0.16
280.21 K, 1328.4 kPa	798.62 ± 0.16
280.21 K, 1656.6 kPa	798.89 ± 0.16
280.21 K, 1944.9 kPa	799.14 ± 0.17
280.21 K, 2440.6 kPa	799.56 ± 0.17
280.21 K, 2850.6 kPa	799.88 ± 0.18
280.21 K, 3198 kPa	800.17 ± 0.18
280.21 K, 3679.1 kPa	800.56 ± 0.18
280.21 K, 4071.1 kPa	800.9 ± 0.19
280.21 K, 4437.7 kPa	801.19 ± 0.19
280.21 K, 4832.6 kPa	801.5 ± 0.19
280.21 K, 5182.1 kPa	801.8 ± 0.2
280.21 K, 5559.1 kPa	802.1 ± 0.2
280.21 K, 5910 kPa	802.39 ± 0.2
280.21 K, 6334.9 kPa	802.73 ± 0.21
280.21 K, 6750.9 kPa	803.06 ± 0.21
280.21 K, 7592 kPa	803.74 ± 0.22
280.21 K, 7999 kPa	804.07 ± 0.22
280.21 K, 8329 kPa	804.33 ± 0.23
280.21 K, 8817 kPa	804.7 ± 0.23
280.21 K, 9350.6 kPa	805.11 ± 0.24
280.21 K, 9658.5 kPa	805.38 ± 0.24
281.21 K, 7166.5 kPa	803.39 ± 0.22
300.09 K, 186.7 kPa	780.22 ± 0.16
300.09 K, 610.5 kPa	780.62 ± 0.16
300.09 K, 953.4 kPa	780.94 ± 0.17
300.09 K, 1339.5 kPa	781.31 ± 0.17
300.09 K, 1722.1 kPa	781.66 ± 0.18
300.09 K, 2044.8 kPa	781.96 ± 0.18
300.09 K, 2446.4 kPa	782.34 ± 0.18
300.09 K, 2834.6 kPa	782.7 ± 0.19
300.09 K, 3224.9 kPa	783.06 ± 0.19
300.09 K, 3671.1 kPa	783.47 ± 0.2
300.09 K, 4074.1 kPa	783.84 ± 0.2
300.09 K, 4362.5 kPa	784.11 ± 0.2
300.09 K, 4771.8 kPa	784.48 ± 0.21
300.09 K, 5226.5 kPa	784.89 ± 0.21
300.09 K, 5579.2 kPa	785.21 ± 0.21
300.09 K, 6001.6 kPa	785.59 ± 0.22
300.09 K, 6427.2 kPa	785.98 ± 0.22
300.09 K, 6780.3 kPa	786.29 ± 0.23
300.09 K, 7214.7 kPa	786.68 ± 0.23
300.09 K, 7629.9 kPa	787.05 ± 0.23
300.09 K, 8020.3 kPa	787.4 ± 0.24
300.09 K, 8417.5 kPa	787.75 ± 0.24
300.09 K, 8805.7 kPa	788.1 ± 0.25
300.09 K, 9212.9 kPa	788.45 ± 0.25
300.09 K, 9621.5 kPa	788.81 ± 0.25
325.12 K, 202.7 kPa	757.05 ± 0.17
325.12 K, 609.4 kPa	757.49 ± 0.18
325.12 K, 960 kPa	757.87 ± 0.18
325.12 K, 1253.9 kPa	758.21 ± 0.18
325.12 K, 1638.8 kPa	758.63 ± 0.19
325.12 K, 2021 kPa	759.06 ± 0.19
325.12 K, 2328.8 kPa	759.39 ± 0.2
325.12 K, 3014.9 kPa	760.15 ± 0.2
325.12 K, 3321.4 kPa	760.48 ± 0.21
325.12 K, 3659.4 kPa	760.85 ± 0.21
325.12 K, 4004.1 kPa	761.22 ± 0.21
325.12 K, 4399.2 kPa	761.65 ± 0.22
325.12 K, 4691.2 kPa	761.97 ± 0.22
325.12 K, 5010.7 kPa	762.32 ± 0.23
325.12 K, 5383.4 kPa	762.71 ± 0.23
325.12 K, 5730.5 kPa	763.08 ± 0.23
325.12 K, 6143.6 kPa	763.52 ± 0.24
325.12 K, 6525.6 kPa	763.91 ± 0.24
325.12 K, 6903.2 kPa	764.31 ± 0.25
325.12 K, 7293.8 kPa	764.72 ± 0.25
325.12 K, 7661.9 kPa	765.11 ± 0.25
325.12 K, 7918.6 kPa	765.38 ± 0.26
325.12 K, 8254.4 kPa	765.72 ± 0.26
325.12 K, 8755.5 kPa	766.24 ± 0.27
325.15 K, 2655.8 kPa	759.75 ± 0.2
350.14 K, 220.4 kPa	731.92 ± 0.18
350.14 K, 663.4 kPa	732.49 ± 0.19
350.14 K, 1071.2 kPa	733.03 ± 0.19
350.14 K, 1412.6 kPa	733.49 ± 0.2
350.14 K, 1844.7 kPa	734.07 ± 0.2
350.14 K, 2226.7 kPa	734.58 ± 0.21
350.14 K, 2644.7 kPa	735.11 ± 0.21
350.14 K, 2842.7 kPa	735.41 ± 0.22
350.14 K, 3286.9 kPa	735.99 ± 0.22
350.14 K, 3630.7 kPa	736.45 ± 0.23
350.14 K, 4012.2 kPa	736.94 ± 0.23
350.14 K, 4394.6 kPa	737.43 ± 0.24
350.14 K, 4757.6 kPa	737.91 ± 0.24
350.14 K, 5197.9 kPa	738.48 ± 0.25
350.14 K, 5577.9 kPa	738.96 ± 0.25
350.14 K, 5939.3 kPa	739.42 ± 0.25
350.14 K, 6321.3 kPa	739.89 ± 0.26
350.14 K, 6730.9 kPa	740.41 ± 0.26
350.14 K, 7119.7 kPa	740.89 ± 0.27
350.14 K, 7564.4 kPa	741.45 ± 0.27
350.14 K, 7988.5 kPa	741.97 ± 0.28
350.14 K, 8472.5 kPa	742.55 ± 0.28
350.14 K, 8925.8 kPa	743.13 ± 0.29
350.14 K, 9280.8 kPa	743.56 ± 0.29
350.14 K, 9676.3 kPa	744.05 ± 0.3
375.01 K, 349.5 kPa	702.23 ± 0.2
375.01 K, 703.3 kPa	702.82 ± 0.21
375.01 K, 1046.8 kPa	703.38 ± 0.21
375.01 K, 1437.5 kPa	704.01 ± 0.22
375.01 K, 1791.6 kPa	704.58 ± 0.22
375.01 K, 2161.7 kPa	705.16 ± 0.23
375.01 K, 2545.7 kPa	705.76 ± 0.23
375.01 K, 2909.9 kPa	706.34 ± 0.24
375.01 K, 3364.1 kPa	707.04 ± 0.24
375.01 K, 3677.6 kPa	707.53 ± 0.25
375.01 K, 4083.2 kPa	708.16 ± 0.25
375.01 K, 4515.7 kPa	708.82 ± 0.26
375.01 K, 4853.5 kPa	709.33 ± 0.26
375.01 K, 5280.2 kPa	709.98 ± 0.27
375.01 K, 5646.9 kPa	710.53 ± 0.27
375.01 K, 6138.1 kPa	711.26 ± 0.28
375.01 K, 6447.1 kPa	711.73 ± 0.28
375.01 K, 6880.9 kPa	712.37 ± 0.29
375.01 K, 7269.8 kPa	712.94 ± 0.3
375.01 K, 7772.4 kPa	713.68 ± 0.3
375.01 K, 8119.2 kPa	714.18 ± 0.31
375.01 K, 8557.2 kPa	714.81 ± 0.31
375.01 K, 8987.3 kPa	715.42 ± 0.32
375.01 K, 9423.8 kPa	716.04 ± 0.32
375.01 K, 9842.2 kPa	716.64 ± 0.33
392.57 K, 407.6 kPa	679.26 ± 0.22
392.57 K, 888.7 kPa	680.18 ± 0.22
392.57 K, 1171.4 kPa	680.72 ± 0.23
392.57 K, 1526.6 kPa	681.39 ± 0.23
392.57 K, 1897.4 kPa	682.08 ± 0.24
392.57 K, 2272.3 kPa	682.77 ± 0.24
392.57 K, 2619.1 kPa	683.41 ± 0.25
392.57 K, 3050.4 kPa	684.2 ± 0.25
392.57 K, 3411.2 kPa	684.86 ± 0.26
392.57 K, 3835 kPa	685.63 ± 0.27
392.57 K, 4095.7 kPa	686.12 ± 0.27
392.57 K, 4524.9 kPa	686.89 ± 0.28
392.57 K, 4902.8 kPa	687.57 ± 0.28
392.57 K, 5283.5 kPa	688.24 ± 0.29
392.57 K, 5775.9 kPa	689.09 ± 0.29
392.57 K, 6039.6 kPa	689.55 ± 0.3
392.57 K, 6476.6 kPa	690.3 ± 0.3
392.57 K, 6889.7 kPa	691.01 ± 0.31
392.57 K, 7348 kPa	691.78 ± 0.32
392.57 K, 7728 kPa	692.42 ± 0.32
392.57 K, 8172.7 kPa	693.17 ± 0.33
392.57 K, 8598.3 kPa	693.88 ± 0.33
392.57 K, 9018.5 kPa	694.57 ± 0.34
392.57 K, 9405 kPa	695.2 ± 0.34
392.57 K, 9837.9 kPa	695.89 ± 0.35
